Data taken from article PMC8491401, “Phytochemical analysis, antioxidant and in vitro β-galactosidase inhibition activities of Juniperus phoenicea and Calicotome villosa methanolic extracts” (BMC Chemistry, 2021).
Where two headings read alike, the source gives them in different places.

What was measured:
[1] = target: T1, β-Galactosidase from Aspergillus oryzae (Aspergillus oryzae, UniProt Q2UCU3); test: ONPG hydrolysis, absorbance at […] nm; type: biochemical
T1 construct: gene lacA; commercial enzyme from Sigma-Aldrich, secreted fungal enzyme; construct details not given
T1 sequence (Q2UCU3 19-1005): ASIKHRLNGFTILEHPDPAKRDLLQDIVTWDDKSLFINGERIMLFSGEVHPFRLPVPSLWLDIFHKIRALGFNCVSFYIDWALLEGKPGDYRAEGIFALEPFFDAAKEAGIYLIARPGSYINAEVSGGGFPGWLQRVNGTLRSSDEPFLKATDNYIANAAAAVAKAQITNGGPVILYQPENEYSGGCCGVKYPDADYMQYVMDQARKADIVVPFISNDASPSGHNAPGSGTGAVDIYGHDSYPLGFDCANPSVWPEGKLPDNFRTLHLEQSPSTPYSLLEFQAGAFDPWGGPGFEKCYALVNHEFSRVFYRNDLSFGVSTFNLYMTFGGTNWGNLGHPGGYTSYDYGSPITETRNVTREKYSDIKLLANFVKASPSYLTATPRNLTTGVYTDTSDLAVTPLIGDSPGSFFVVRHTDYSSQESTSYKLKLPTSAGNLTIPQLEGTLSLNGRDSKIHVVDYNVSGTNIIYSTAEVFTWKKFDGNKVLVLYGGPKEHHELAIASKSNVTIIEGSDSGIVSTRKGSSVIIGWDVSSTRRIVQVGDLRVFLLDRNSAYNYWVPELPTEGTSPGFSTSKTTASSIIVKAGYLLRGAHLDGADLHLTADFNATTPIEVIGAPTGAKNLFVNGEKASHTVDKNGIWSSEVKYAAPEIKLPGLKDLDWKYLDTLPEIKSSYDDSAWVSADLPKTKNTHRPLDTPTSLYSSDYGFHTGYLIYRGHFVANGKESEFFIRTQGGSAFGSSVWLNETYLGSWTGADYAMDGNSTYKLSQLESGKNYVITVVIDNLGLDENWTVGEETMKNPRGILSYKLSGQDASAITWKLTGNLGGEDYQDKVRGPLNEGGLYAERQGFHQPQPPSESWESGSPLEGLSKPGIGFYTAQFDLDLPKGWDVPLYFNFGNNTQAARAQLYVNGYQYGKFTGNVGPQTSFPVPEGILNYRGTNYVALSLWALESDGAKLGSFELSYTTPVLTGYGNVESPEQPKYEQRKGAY

[2] = target: T1, β-Galactosidase from Aspergillus oryzae; test: Lineweaver-Burk, ONPG hydrolysis; type: biochemical; conditions: pH 4.5, 30 °C, mixed, read-out: Ki (mg/ml) (converted)
From the text: Lineweaver-Burk, ONPG hydrolysis on β-Galactosidase from Aspergillus oryzae

[3] = substrate: O=[N+]([O-])c1ccccc1O[C@@H]1O[C@H](CO)[C@H](O)[C@H](O)[C@H]1O; test: Lineweaver-Burk, ONPG hydrolysis; type: biochemical, Aspergillus oryzae; conditions: pH 4.5, 30 °C, no inhibitor
From the text: Lineweaver-Burk, ONPG hydrolysis on β-Galactosidase from Aspergillus oryzae | Km and Vmax were obtained by a typical double reciprocal Lineweaver Burk plot

For `OC[C@H]1OC(O)[C@H](O)[C@@H](O)[C@H]1O` (stereo partly shown) [Galactose], which IC50 ([1]; ONPG 20 µmol in 4 ml, 0.1 M citrate-phosphate pH 4.5, 30 °C, mixed) is on record?
The IC50 was 3.33 mM.

And the Ki [2]?
Its Ki is 10.4 mM.

How did the IC50 [1] turn out when `C[C@@H]1O[C@@H](OC[C@H]2O[C@@H](Oc3c(-c4ccc(O)c(O)c4)oc4cc(O)cc(O)c4c3=O)[C@H](O)[C@@H](O)[C@@H]2O)[C@H](O)[C@H](O)[C@H]1O` [Rutin] was run?
The IC50 was 0.123 mM.

B1: β-Galactosidase from Aspergillus oryzae (Aspergillus oryzae RIB40) (protein)
chain: ASIKHRLNGFTILEHPDPAKRDLLQDIVTWDDKSLFINGERIMLFSGEVHPFRLPVPSLWLDIFHKIRALGFNCVSFYIDWALLEGKPGDYRAEGIFALEPFFDAAKEAGIYLIARPGSYINAEVSGGGFPGWLQRVNGTLRSSDEPFLKATDNYIANAAAAVAKAQITNGGPVILYQPENEYSGGCCGVKYPDADYMQYVMDQARKADIVVPFISNDASPSGHNAPGSGTGAVDIYGHDSYPLGFDCANPSVWPEGKLPDNFRTLHLEQSPSTPYSLLEFQAGAFDPWGGPGFEKCYALVNHEFSRVFYRNDLSFGVSTFNLYMTFGGTNWGNLGHPGGYTSYDYGSPITETRNVTREKYSDIKLLANFVKASPSYLTATPRNLTTGVYTDTSDLAVTPLIGDSPGSFFVVRHTDYSSQESTSYKLKLPTSAGNLTIPQLEGTLSLNGRDSKIHVVDYNVSGTNIIYSTAEVFTWKKFDGNKVLVLYGGPKEHHELAIASKSNVTIIEGSDSGIVSTRKGSSVIIGWDVSSTRRIVQVGDLRVFLLDRNSAYNYWVPELPTEGTSPGFSTSKTTASSIIVKAGYLLRGAHLDGADLHLTADFNATTPIEVIGAPTGAKNLFVNGEKASHTVDKNGIWSSEVKYAAPEIKLPGLKDLDWKYLDTLPEIKSSYDDSAWVSADLPKTKNTHRPLDTPTSLYSSDYGFHTGYLIYRGHFVANGKESEFFIRTQGGSAFGSSVWLNETYLGSWTGADYAMDGNSTYKLSQLESGKNYVITVVIDNLGLDENWTVGEETMKNPRGILSYKLSGQDASAITWKLTGNLGGEDYQDKVRGPLNEGGLYAERQGFHQPQPPSESWESGSPLEGLSKPGIGFYTAQFDLDLPKGWDVPLYFNFGNNTQAARAQLYVNGYQYGKFTGNVGPQTSFPVPEGILNYRGTNYVALSLWALESDGAKLGSFELSYTTPVLTGYGNVESPEQPKYEQRKGAY
notes: commercial enzyme from Sigma-Aldrich, secreted fungal enzyme; construct details not given
For B1, which Km [3] is on record?
Its Km is 1310 ± 91 µM.
